From patent US20240270750A1, “IMIDAZOLE-CONTAINING INHIBITORS OF ALK2 KINASE” (BioCryst Pharmaceuticals, Inc., priority 2021, published 2024) come the findings set out here.

The test addresses T1, ALK2 (Homo sapiens, UniProt Q04771).
T1 construct: purchased ThermoFisher Scientific (Life Technologies)
T1 sequence (Q04771 21-509): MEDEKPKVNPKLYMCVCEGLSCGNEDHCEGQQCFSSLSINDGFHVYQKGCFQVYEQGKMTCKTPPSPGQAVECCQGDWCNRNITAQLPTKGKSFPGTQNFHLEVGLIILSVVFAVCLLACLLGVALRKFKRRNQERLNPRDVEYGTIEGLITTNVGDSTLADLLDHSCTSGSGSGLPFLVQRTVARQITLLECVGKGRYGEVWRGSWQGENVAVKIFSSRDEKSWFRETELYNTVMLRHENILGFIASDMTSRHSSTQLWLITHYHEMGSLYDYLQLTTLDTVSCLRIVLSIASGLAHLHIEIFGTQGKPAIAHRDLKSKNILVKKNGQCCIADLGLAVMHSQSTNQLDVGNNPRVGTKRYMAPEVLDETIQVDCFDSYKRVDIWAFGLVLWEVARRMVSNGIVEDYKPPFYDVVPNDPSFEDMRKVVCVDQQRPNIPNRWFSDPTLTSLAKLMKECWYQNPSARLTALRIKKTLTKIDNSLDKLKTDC
As to the kind of experiment: LanthaScreen Eu Kinase Binding Assay, ALK2 inhibition. The conditions noted are these: 1 micromolar concentration. As to the method:
Biochemical assays to measure the inhibitory effects of the compounds were performed by ThermoFisher Scientific (Life Technologies). ALK2 inhibition was tested using LanthaScreen™ Eu Kinase Binding Assay screening protocol.
Background: Time-resolved FRET reads energy transfer from a long-lived donor to a nearby acceptor.

Where a name gives a salt, the structure may show the parent alone.

As a reminder, the inhibition is the percentage by which the read-out fell short of the control. Lower therefore signals a weak effect. For `COc1cc(-n2cnc(Nc3nc(C4CCCC4)nc4c3cnn4C(C)C)c2)cc(OC)c1OC` [Compound 44e, 6-cyclopentyl-1-isopropyl-N-(1-(3,4,5-trimethoxyphenyl)-1H-imidazol-4-yl)-1H-pyrazolo[3,4-d]pyrimidin-4-amine], the inhibition at 1 µM is above 50%.

Regarding `COc1cc(-n2cnc(Nc3nc(C4CCOC4)nc4c3cnn4C(C)C)c2)cc(OC)c1OC` (stereo not shown) [Compound 45e, 1-isopropyl-6-(tetrahydrofuran-3-yl)-N-(1-(3,4,5-trimethoxyphenyl)-1H-imidazol-4-yl)-1H-pyrazolo[3,4-d]pyrimidin-4-amine], the inhibition at 1 µM was above 50%.

Take `COc1cc(-n2cnc(Nc3nc(CC(C)C)nc4c3CCC4c3ccccc3)c2)cc(OC)c1OC` (stereo not shown) [Compound 46d, 2-isobutyl-7-phenyl-N-(1-(3,4,5-trimethoxyphenyl)-1H-imidazol-4-yl)-6,7-dihydro-5H-cyclopenta[d]pyrimidin-4-amine]: the inhibition at 1 µM was above 50%.

`COc1cc(-n2cnc(Nc3nc(C(C)CC(O)CO)nc4c3cnn4C(C)C)c2)cc(OC)c1OC` (stereo not shown) [Compound 47a, 4-(1-isopropyl-4-((1-(3,4,5-trimethoxyphenyl)-1H-imidazol-4-yl)amino)-1H-pyrazolo[3,4-d]pyrimidin-6-yl)pentane-1,2-diol] came in with an inhibition at 1 µM above 50%.

Consider `COc1cc(-n2cnc(Nc3nc(C4CCN(C)CC4)nc4c3cnn4C(C)C)c2)cc(OC)c1OC` [Compound 48a, 1-isopropyl-6-(1-methylpiperidin-4-yl)-N-(1-(3,4,5-trimethoxyphenyl)-1H-imidazol-4-yl)-1H-pyrazolo[3,4-d]pyrimidin-4-amine], for which the inhibition at 1 µM was above 50%.

In the case of `COc1cc(-n2cnc(Nc3nc(C(C)CCO)nc4c3cnn4C(C)C)c2)cc(OC)c1OC` (stereo not shown) [Compound 49b, 3-(1-isopropyl-4-((1-(3,4,5-trimethoxyphenyl)-1H-imidazol-4-yl)amino)-1H-pyrazolo[3,4-d]pyrimidin-6-yl)butan-1-ol], the inhibition at 1 µM is above 50%.

The molecule `CNCCC(C)c1nc(Nc2cn(-c3cc(OC)c(OC)c(OC)c3)cn2)c2cnn(C(C)C)c2n1` (stereo not shown) [Compound 50a, 1-isopropyl-6-(4-(methylamino)butan-2-yl)-N-(1-(3,4,5-trimethoxyphenyl)-1H-imidazol-4-yl)-1H-pyrazolo[3,4-d]pyrimidin-4-amine] came in with an inhibition at 1 µM above 50%.

Take `C=C(C)c1nc(Nc2cn(-c3cc(OC)c(OC)c(OC)c3)cn2)c2sccc2n1` [Compound 51c, 2-(prop-1-en-2-yl)-N-(1-(3,4,5-trimethoxyphenyl)-1H-imidazol-4-yl)thieno[3,2-d]pyrimidin-4-amine]: the inhibition at 1 µM was above 50%.

For the molecule `COc1cc(-n2cnc(Nc3nc(C(C)C)nc4ccsc34)c2)cc(OC)c1OC` [Compound 52b, 2-isopropyl-N-(1-(3,4,5-trimethoxyphenyl)-1H-imidazol-4-yl)thieno[3,2-d]pyrimidin-4-amine hydrochloride], the inhibition at 1 µM was above 50%.

`C=C(C)c1nc(Nc2cn(-c3cc(OC)c(OC)c(OC)c3)cn2)nc2ccsc12` [Compound 53c, 4-(prop-1-en-2-yl)-N-(1-(3,4,5-trimethoxyphenyl)-1H-imidazol-4-yl)thieno[3,2-d]pyrimidin-2-amine]: the inhibition at 1 µM was above 50%.

For the molecule `COc1cc(-n2cnc(Nc3nc(C(C)C)c4sccc4n3)c2)cc(OC)c1OC` [Compound 54a, 4-isopropyl-N-(1-(3,4,5-trimethoxyphenyl)-1H-imidazol-4-yl)thieno[3,2-d]pyrimidin-2-amine], the inhibition at 1 µM is above 50%.

Turning to `C=C(C)c1nc(Nc2cn(-c3cc(OC)c(OC)c(OC)c3)cn2)nc2ccccc12` [Compound 55c, 4-(prop-1-en-2-yl)-N-(1-(3,4,5-trimethoxyphenyl)-1H-imidazol-4-yl)quinazolin-2-amine], the inhibition at 1 µM is above 50%.

In turn, `COc1cc(-n2cnc(Nc3nc(C(C)C)c4ccccc4n3)c2)cc(OC)c1OC` [Compound 56a, 4-isopropyl-N-(1-(3,4,5-trimethoxyphenyl)-1H-imidazol-4-yl)quinazolin-2-amine] had an inhibition at 1 µM above 50%.
